Reference: US20250051327A1, “MALT-1 MODULATORS” (EXSCIENTIA AI LIMITED, priority 2020, published 2025)

target: Recombinant human MALT-1 (amino acids 340-824) (Homo sapiens (Human), UniProt Q9UDY8); experiment: MALT-1 inhibition assay (fluorogenic substrate Ac-LRSR-Rh110-DP); format: biochemical; details: recombinant human MALT-1, substrate Ac-LRSR-Rh110-DP
Experimental: MALT-1 paracaspase activity was measured using the fluorogenic substrate Ac-LRSR-Rh110-DP (purchased from Biosantan GmbH). […] The reaction was initiated by addition of substrate. Final concentrations of MALT-1 and substrate were 3 nM and 10 μM respectively. Reactions were incubated in the dark for 60 minutes at 25° C. […] Percent inhibition values were calculated from relative fluorescence units at different doses and fitted to a 4-parameter logistic curve to determine IC50 values (see Table 1).

Sequence of Recombinant human MALT-1 (amino acids 340-824) (Q9UDY8 340-824): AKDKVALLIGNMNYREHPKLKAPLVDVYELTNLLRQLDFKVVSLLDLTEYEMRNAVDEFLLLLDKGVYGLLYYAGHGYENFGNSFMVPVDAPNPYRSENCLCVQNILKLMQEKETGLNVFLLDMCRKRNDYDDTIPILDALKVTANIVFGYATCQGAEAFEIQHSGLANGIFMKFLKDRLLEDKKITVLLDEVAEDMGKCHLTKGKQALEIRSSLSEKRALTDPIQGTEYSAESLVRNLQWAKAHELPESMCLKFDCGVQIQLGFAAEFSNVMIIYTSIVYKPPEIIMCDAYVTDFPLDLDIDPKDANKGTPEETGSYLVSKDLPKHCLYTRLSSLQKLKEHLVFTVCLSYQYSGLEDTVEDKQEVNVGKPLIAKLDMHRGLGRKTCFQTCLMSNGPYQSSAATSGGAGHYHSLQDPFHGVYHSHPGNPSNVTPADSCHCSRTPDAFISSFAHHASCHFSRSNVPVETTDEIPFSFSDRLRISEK

Compound	IC50
CN1C[C@@H](C(=O)N(C)[C@@H](c2ccc(N3CCCc4c3cnc3cc(Cl)nn43)cc2)C(F)(F)F)NC1=O (relative stereo) [CPD0075574, (4rel S)-N-[(1S)-1-[4-(4-chloro-2,3,7,10-tetrazatricyclo[7.4.0.0^2,6]trideca-1(9),3,5,7-tetraen-10-yl)phenyl]-2,2,2-trifluoro-ethyl]-N,1-dimethyl-2-oxo-imidazolidine-4-carboxamide]	80 nM
CN(C(=O)[C@@H]1CCN(C(=O)CO)C1)[C@@H](c1ccc(N2CCCc3c2cnc2cc(F)nn32)cc1)C(F)(F)F [CPD0075879]	154 nM
C[C@@H]1CCN(c2ccc([C@H](N(C)C(=O)[C@@H]3CNC(=O)C3)C(F)(F)F)cc2)c2cnc3cc(Cl)nn3c21 [CPD0074548]	46 nM
CN(C(=O)[C@@H]1CNC(=O)C1)[C@H](c1ccc(N2CCCc3c2cnc2cc(Cl)nn32)cc1)C(F)(F)F (stereo in doubt) [CPD0077245, (3 rel-S)—N-[(1R)-1-[4-(4-chloro-2,3,7,10-tetrazatricyclo[7.4.0.0^2,6]trideca-1(9),3,5,7-tetraen-10-yl)phenyl]-2,2,2-trifluoro-ethyl]-N-methyl-5-oxo-pyrrolidine-3-carboxamide]	355 nM
C[C@@H]1CCc2c(cnc3cc(Cl)nn23)N1c1ccc([C@H](N(C)C(=O)[C@H]2CC[S@@](=N)(=O)CC2)C(F)(F)F)cc1 (relative stereo) [CPD0074552, (1rel s 4rel s) N-[(1S)-1-[4-[(11-rel R)-4-chloro-11-methyl-2,3,7,10-tetrazatricyclo[7.4.0.0^2,6]trideca-1(9),3,5,7-tetraen-10-yl]phenyl]-2,2,2-trifluoro-ethyl]-1-imino-N-methyl-1-oxo-thiane-4-carboxamide]	78 nM
CN(C(=O)[C@H]1CC(=O)N1)[C@@H](c1ccc(N2CCCc3c2cnc2cc(Cl)nn32)cc1)C(F)(F)F [CPD0075869, (2R)-N-[(1S)-1-[4-(4-chloro-2,3,7,10-tetrazatricyclo[7.4.0.0^2,6]trideca-1(9),3,5,7-tetraen-10-yl)phenyl]-2,2,2-trifluoro-ethyl]-N-methyl-4-oxo-azetidine-2-carboxamide]	75 nM
CN(C(=O)C1CNC(=O)N1)[C@@H](c1ccc(N2CCCc3c2cnc2cc(Cl)nn32)cc1)C(F)(F)F (stereo in doubt) [CPD0075579, (4rel R)-N-[(1S)-1-[4-(4-chloro-2,3,7,10-tetrazatricyclo[7.4.0.0^2,6]trideca-1(9),3,5,7-tetraen-10-yl)phenyl]-2,2,2-trifluoro-ethyl]-N-methyl-2-oxo-imidazolidine-4-carboxamide]	44 nM
C[C@H]1CCc2c(cnc3cc(Cl)nn23)N1c1ccc([C@H](N(C)C(=O)[C@H]2CC[S@@](=N)(=O)CC2)C(F)(F)F)cc1 (relative stereo) [CPD0074565, (1rel s 4rel s) N-[(1S)-1-[4-[(11-rel S)-4-chloro-11-methyl-2,3,7,10-tetrazatricyclo[7.4.0.0^2,6]trideca-1(9),3,5,7-tetraen-10-yl]phenyl]-2,2,2-trifluoro-ethyl]-1-imino-N-methyl-1-oxo-thiane-4-carboxamide]	377 nM
CN(C(=O)C1CC(O)C1)[C@@H](c1ccc(N2CCCc3c2cnc2cc(Cl)nn32)cc1)C(F)(F)F (stereo partly shown) [CPD0073055]	46 nM
CN(C(=O)[C@H]1C[C@@H](O)C1)[C@@H](c1ccc(N2CCCc3c2cnc2cc(Cl)nn32)cc1)C(F)(F)F [CPD0074538]	57 nM
CN(C(=O)[C@@H]1CNC(=O)O1)[C@@H](c1ccc(N2CCCc3c2cnc2cc(Cl)nn32)cc1)C(F)(F)F (single isomer, unassigned) [CPD0075573]	197 nM
CN(C(=O)[C@@H]1CNC(=O)N1)[C@@H](c1ccc(N2CCCc3c2cnc2cc(Cl)nn32)cc1)C(F)(F)F (relative stereo) [CPD0075578, (4rel S)-N-[(1S)-1-[4-(4-chloro-2,3,7,10-tetrazatricyclo[7.4.0.0^2,6]trideca-1(9),3,5,7-tetraen-10-yl)phenyl]-2,2,2-trifluoro-ethyl]-N-methyl-2-oxo-imidazolidine-4-carboxamide]	51 nM
C[C@@H]1CCc2c(cnc3cc(Cl)nn23)N1c1ccc([C@H](N(C)C(=O)[C@H]2CC[S@](=N)(=O)CC2)C(F)(F)F)cc1 (relative stereo) [CPD0074551, (1rel r 4rel r) N-[(1S)-1-[4-[(11-rel R)-4-chloro-11-methyl-2,3,7,10-tetrazatricyclo[7.4.0.0^2,6]trideca-1(9),3,5,7-tetraen-10-yl]phenyl]-2,2,2-trifluoro-ethyl]-1-imino-N-methyl-1-oxo-thiane-4-carboxamide]	57 nM
C[C@H]1CCc2c(cnc3cc(Cl)nn23)N1c1ccc([C@H](N(C)C(=O)[C@H]2CC[S@](=N)(=O)CC2)C(F)(F)F)cc1 (relative stereo) [CPD0074564, (1rel r 4rel r) N-[(1S)-1-[4-[(11-rel S)-4-chloro-11-methyl-2,3,7,10-tetrazatricyclo[7.4.0.0^2,6]trideca-1(9),3,5,7-tetraen-10-yl]phenyl]-2,2,2-trifluoro-ethyl]-1-imino-N-methyl-1-oxo-thiane-4-carboxamide]	248 nM
C[C@@H]1CCN(c2ccc([C@H](N(C)C(=O)[C@H]3CNC(=O)C3)C(F)(F)F)cc2)c2cnc3cc(Cl)nn3c21 [CPD0074560]	43 nM

Continued, values first:

IC50	Compound
75 nM	CN(C(=O)[C@H]1CCN(C(=O)C2(O)CC2)C1)[C@@H](c1ccc(N2CCCc3c2cnc2cc(Cl)nn32)cc1)C(F)(F)F (relative stereo) [CPD0073979, (3rel-S)-N-[(1S)-1-[4-(4-chloro-2,3,7,10-tetrazatricyclo[7.4.0.0^2,6]trideca-1(9),3,5,7-tetraen-10-yl)phenyl]-2,2,2-trifluoro-ethyl]-1-(1-hydroxycyclopropanecarbonyl)-N-methyl-pyrrolidine-3-carboxamide]
154 nM	CC(=O)N1CCC(C(=O)N(C)[C@@H](c2ccc(N3CCCc4c3cnc3cc(Cl)nn43)nc2)C(F)(F)F)CC1 [CPD0074051, 1-acetyl-N-[(1S)-1-[6-(4-chloro-2,3,7,10-tetrazatricyclo[7.4.0.0^2,6]trideca-1(9),3,5,7-tetraen-10-yl)-3-pyridyl]-2,2,2-trifluoro-ethyl]-N-methyl-piperidine-4-carboxamide]
494 nM	COc1ccc2ncc(Nc3ccc([C@H](N(C)C(=O)C4CCS(=O)(=O)CC4)C(F)(F)F)cc3)c(C(=O)N3CCC3)c2n1 [CPD0074046, N-[(1S)-1-[4-[[4-(azetidine-1-carbonyl)-6-methoxy-1,5-naphthyridin-3-yl]amino]phenyl]-2,2,2-trifluoro-ethyl]-N-methyl-1,1-dioxo-thiane-4-carboxamide]
109 nM	COc1ccc2ncc(Nc3ccc([C@H](N(C)C(=O)C4CCS(=O)(=O)CC4)C(F)(F)F)cc3)c(C3(F)COC3)c2n1 [CPD0076413, N-methyl-1,1-dioxo-N-[(1S)-2,2,2-trifluoro-1-[4-[[4-(3-fluorooxetan-3-yl)-6-methoxy-1,5-naphthyridin-3-yl]amino]phenyl]ethyl]thiane-4-carboxamide]
124 nM	COc1ccc2ncc(Nc3ccc([C@H](N(C)C(=O)C4CCS(=O)(=O)CC4)C(F)(F)F)cc3)c([C@H](C)N)c2n1 (relative stereo) [CPD0084307, N-[(1 S)-1-[4-[[4-[(1rel S)-1-aminoethyl]-6-methoxy-1,5-naphthyridin-3-yl]amino]phenyl]-2,2,2-trifluoroo-ethyl]-N-methyl-1,1-dioxo-thiane-4-carboxamide]
163 nM	COc1ccc2ncc(Nc3ccc([C@H](N(C)C(=O)C4CCS(=O)(=O)CC4)C(F)(F)F)cc3)c(COC3CC3)c2n1 [CPD0074048]
50 nM	CO[C@@H](C)c1c(Nc2ccc([C@H](N(C)C(=O)[C@H]3CC[S@@](=N)(=O)CC3)C(F)(F)F)cc2)cnn2cc(Cl)nc12 (relative stereo) [CPD0082474, (1rel-s,4rel-s) N-[(1 S)-1-[4-[[2-chloro-8-[(1S)-1-methoxyethyl]imidazo[1,2-b]pyridazin-7-yl]amino]phenyl]-2,2,2-trifluoro-ethyl]-1-imino-N-methyl-1-oxo-thiane-4-carboxamide]
45 nM	CO[C@@H](C)c1c(Nc2ccc([C@H](N(C)C(=O)[C@H]3CCC(=O)N3)C(F)(F)F)cc2)cnn2cc(Cl)nc12 [CPD0082469, (2R)-N-[(1S)-1-[4-[[2-chloro-8-[(1 S)-1-methoxyethyl]imidazo[1,2-b]pyridazin-7-yl]amino]phenyl]-2,2,2-trifluoro-ethyl]-N-methyl-5-oxo-pyrrolidine-2-carboxamide]
77 nM	COc1ccc2ncc(Nc3ccc([C@H](N(C)C(=O)C4CCN(C(C)=O)CC4)C(F)(F)F)cc3)c([C@@H]3CCOC3)c2n1 [CPD0082480]
54 nM	CN(C(=O)[C@@H]1CCN(C(=O)C2(O)CC2)C1)[C@@H](c1ccc(N2CCCc3c2cnc2cc(Cl)nn32)cc1)C(F)(F)F [CPD0073978, (3rel-R)-N-[(1S)-1-[4-(4-chloro-2,3,7,10-tetrazatricyclo[7.4.0.0^2,6]trideca-1(9),3,5,7-tetraen-10-yl)phenyl]-2,2,2-trifluoro-ethyl]-1-(1-hydroxycyclopropanecarbonyl)-N-methyl-pyrrolidine-3-carboxamide]
72 nM	COc1ccc2ncc(Nc3ccc([C@H](N(C)C(=O)C4CCN(C(=O)CO)CC4)C(F)(F)F)cc3)c([C@@H]3CCOC3)c2n1 [CPD0082482]
85 nM	CC(=O)N1CCC(C(=O)N(C)[C@@H](c2ccc(N3CCCc4c3cnc3cc(F)nn43)cc2)C(F)(F)F)CC1 [CPD0074050, 1-acetyl-N-methyl-N-[(1S)-2,2,2-trifluoro-1-(4-{4-fluoro-2,3,7,10-tetraazatricyclo[7.4.0.0^2,6]trideca-1(9),3,5,7-tetraen-10-yl}phenyl)ethyl]piperidine-4-carboxamide]
73 nM	COc1ccc2ncc(Nc3ccc([C@H](N(C)C(=O)C4CCN(C(=O)CO)CC4)C(F)(F)F)cc3)c([C@H]3CCOC3)c2n1 [CPD0082481]
